This series is described as follows: Stability of the compound assessed as half life in 1M sodium acetate buffer of pH 4.5 at 37 degC. It counts as physicochemical.

In the case of `COC(=O)[C@H](CCCCNC(=O)Cc1cccc(N=C2C(=O)N(Cc3ccc(OC)cc3)c3c(Br)cc(Br)cc32)c1)NC(C)=O` (mixture of isomers), the half-life (commonly how long it takes for the measured level to halve) is 33 min.
Consider `COC(=O)[C@H](CCCCNC(=O)Cc1ccc(N=C2C(=O)N(Cc3ccc(OC)cc3)c3c(Br)cc(Br)cc32)cc1)NC(C)=O` (mixture of isomers), for which the half-life stood at 23 min.

Values taken from ChEMBL document CHEMBL1681682, “Synthesis and hydrolytic evaluation of acid-labile imine-linked cytotoxic isatin model systems” (Bioorg Med Chem, 2011).
